These results are taken from patent US20240408216A1, “PROTEIN INHIBITOR OR DEGRADING AGENT, PHARMACEUTICAL COMPOSITION CONTAINING SAME AND PHARMACEUTICAL USE” (JING MEDICINE TECHNOLOGY (SHANGHAI) LTD., priority 2021, published 2024).

As a reminder, the IC50 is the midpoint of a concentration-inhibition curve.

One assay relates to BaF3 (EGFR L858R/T790M/C797S). Kind of assay: Cell proliferation IC50 assay (Cell Titer GLO), BaF3 LTC cells. The format is cell-based. Conditions: Mus musculus, Ba/F3 EGFR, Table 6, 72 h. In a few lines: (§1)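 Each cell line, plated at 2000-4000 cells/well, received serially diluted compound for 72 h (37° C, 5% CO2) before luminescent ATP-based viability detection. IC50 values were derived from growth inhibition relative to DMSO-treated and cell-free blank wells.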
A general note: ATP-based viability assays read luminescence as a measure of living cells.
For the compound `COc1cc(N2CCC(N3CCN(CCCCOc4cccc5c4CN(C4CCC(=O)NC4=O)C5=O)CC3)CC2)c(-c2cnn(C)c2)cc1Nc1ncc(Cl)c(Nc2ccccc2P(C)(C)=O)n1` (stereo not drawn) [Example E146], the IC50 was 55.8 nM.

The compound `CCc1cc(Nc2ncc(Cl)c(Nc3ccccc3P(C)(C)=O)n2)cc(Cl)c1N1CCC(N2CCN(CCC#Cc3cccc4c3CN(C3CCC(=O)NC3=O)C4=O)CC2)CC1` (stereo not drawn) [Example E77] registered an IC50 of 44.6 nM.

For the compound `CCc1cc(Nc2ncc(Cl)c(Nc3ccccc3P(C)(C)=O)n2)c(OC(F)F)cc1N1CCC(N2CCN(CCOc3cccc4c3CN(C3CCC(=O)NC3=O)C4=O)CC2)CC1` (stereo not drawn) [Example E151], the midpoint of inhibition, the IC50, lay at 56.1 nM.

Regarding `CCc1cc(Nc2ncc(Cl)c(Nc3ccccc3P(C)(C)=O)n2)c(OC)cc1N1CCC(N2CCN(CCOc3cccc4c3CN(C3CCC(=O)NC3=O)C4=O)C(C)(C)C2)CC1` (stereo not drawn) [Example E108], the IC50 is 76.7 nM.

Consider `COCc1cc(Nc2ncc(Cl)c(Nc3ccccc3P(C)(C)=O)n2)c(OC)cc1N1CCC(N2CCN(CCCCOc3cccc4c3CN(C3CCC(=O)NC3=O)C4=O)CC2)CC1` (stereo not drawn) [Example E125], for which the IC50 came out at 104 nM.

Turning to `CCc1cc(Nc2ncc(Cl)c(Nc3ccccc3P(C)(C)=O)n2)c(OC)cc1N1CCC(N(C)CCCCOc2cccc3c2CN(C2CCC(=O)NC2=O)C3=O)CC1` (stereo not drawn) [Example E116], the IC50 is 56.3 nM.

The subject of a further assay is BaF3 (EGFR Del19/T790M/C797S). Kind of assay: Cell proliferation IC50 assay (Cell Titer GLO), BaF3 DTC cells. The format is cell-based. Conditions: Mus musculus, Ba/F3 EGFR-Del19/T790M/C797S, Table 6, 72 h. The protocol:
IC50 of compounds in the present invention was determined by Cell Titer GLO reagent from Promega. The procedures are as follows:
Tumor cells were cultured in specified medium in an incubator at 37° C. and 5% CO2. The cells were passaged periodically. Cells at the logarithmic growth phase were collected for plating at a density of 2000-4000 cells/well. The next day, the compounds of the present invention were serially diluted and added to the cells, with DMSO being the negative control and the culture media without cells being the blank control. The plate was incubated in the incubator for 72 h. The cell viability assay was performed by adding the detection reagents to the cell culture media according to Cell Titer GLO reagent instructions and detecting luminescent signals on an EnVision microplate reader (PerkinElmer).
Inhibition of cell growth by the compounds of the present invention was plotted by Prism Graphpad software for statistically calculating the IC50 of the compound of the present invention.
`COc1cc(N2CCC(N3CCN(CCCCOc4cccc5c4CN(C4CCC(=O)NC4=O)C5=O)CC3)CC2)c(-c2cnn(C)c2)cc1Nc1ncc(Cl)c(Nc2ccccc2P(C)(C)=O)n1` (stereo not drawn) [Example E146] showed an IC50 of 15.7 nM.

As to `CCc1cc(Nc2ncc(Cl)c(Nc3ccccc3P(C)(C)=O)n2)cc(Cl)c1N1CCC(N2CCN(CCC#Cc3cccc4c3CN(C3CCC(=O)NC3=O)C4=O)CC2)CC1` (stereo not drawn) [Example E77], the IC50 stood at 16.3 nM.

`CCc1cc(Nc2ncc(Cl)c(Nc3ccccc3P(C)(C)=O)n2)c(OC(F)F)cc1N1CCC(N2CCN(CCOc3cccc4c3CN(C3CCC(=O)NC3=O)C4=O)CC2)CC1` (stereo not drawn) [Example E151] displayed an IC50 of 3.85 nM.

Regarding `CCc1cc(Nc2ncc(Cl)c(Nc3ccccc3P(C)(C)=O)n2)c(OC)cc1N1CCC(N2CCN(CCOc3cccc4c3CN(C3CCC(=O)NC3=O)C4=O)C(C)(C)C2)CC1` (stereo not drawn) [Example E108], half-maximal inhibition (IC50) required 10.5 nM.

`COCc1cc(Nc2ncc(Cl)c(Nc3ccccc3P(C)(C)=O)n2)c(OC)cc1N1CCC(N2CCN(CCCCOc3cccc4c3CN(C3CCC(=O)NC3=O)C4=O)CC2)CC1` (stereo not drawn) [Example E125] returned an IC50 of 20.3 nM.

`CCc1cc(Nc2ncc(Cl)c(Nc3ccccc3P(C)(C)=O)n2)c(OC)cc1N1CCC(N(C)CCCCOc2cccc3c2CN(C2CCC(=O)NC2=O)C3=O)CC1` (stereo not drawn) [Example E116]: the 50% inhibitory concentration (IC50) is 7.32 nM.

In a further assay the test system is A431. In words: Cell proliferation IC50 assay (Cell Titer GLO), A431 cells. It is filed as cell-based. The settings on record: Homo sapiens, A-431; Table 6; A431, 72 h; read-out: A431 IC50. A digest of the protocol: as §1
As to `COc1cc(N2CCC(N3CCN(CCCCOc4cccc5c4CN(C4CCC(=O)NC4=O)C5=O)CC3)CC2)c(-c2cnn(C)c2)cc1Nc1ncc(Cl)c(Nc2ccccc2P(C)(C)=O)n1` (stereo not drawn) [Example E146], the IC50 was 908 nM.

For `CCc1cc(Nc2ncc(Cl)c(Nc3ccccc3P(C)(C)=O)n2)cc(Cl)c1N1CCC(N2CCN(CCC#Cc3cccc4c3CN(C3CCC(=O)NC3=O)C4=O)CC2)CC1` (stereo not drawn) [Example E77], the IC50 came to 651 nM.

Take `CCc1cc(Nc2ncc(Cl)c(Nc3ccccc3P(C)(C)=O)n2)c(OC(F)F)cc1N1CCC(N2CCN(CCOc3cccc4c3CN(C3CCC(=O)NC3=O)C4=O)CC2)CC1` (stereo not drawn) [Example E151]: the IC50 is 3160 nM.

Take `CCc1cc(Nc2ncc(Cl)c(Nc3ccccc3P(C)(C)=O)n2)c(OC)cc1N1CCC(N2CCN(CCOc3cccc4c3CN(C3CCC(=O)NC3=O)C4=O)C(C)(C)C2)CC1` (stereo not drawn) [Example E108]: the IC50 worked out at 3550 nM.

With `COCc1cc(Nc2ncc(Cl)c(Nc3ccccc3P(C)(C)=O)n2)c(OC)cc1N1CCC(N2CCN(CCCCOc3cccc4c3CN(C3CCC(=O)NC3=O)C4=O)CC2)CC1` (stereo not drawn) [Example E125], the IC50 was above 4000 nM.

Take `CCc1cc(Nc2ncc(Cl)c(Nc3ccccc3P(C)(C)=O)n2)c(OC)cc1N1CCC(N(C)CCCCOc2cccc3c2CN(C2CCC(=O)NC2=O)C3=O)CC1` (stereo not drawn) [Example E116]: the 50% inhibitory concentration (IC50) was determined as 1220 nM.

The subject of a further assay is BaF3 (EGFR WT). In words: Cell proliferation IC50 assay (Cell Titer GLO), BaF3 WT cells. The format is cell-based. Conditions: Mus musculus, Ba/F3 EGFR, Table 6, 10 ng/ml EGF, 72 h. A digest of the protocol:
as §1
For the compound `COc1cc(N2CCC(N3CCN(CCCCOc4cccc5c4CN(C4CCC(=O)NC4=O)C5=O)CC3)CC2)c(-c2cnn(C)c2)cc1Nc1ncc(Cl)c(Nc2ccccc2P(C)(C)=O)n1` (stereo not drawn) [Example E146], the IC50 was 188 nM.

Take `CCc1cc(Nc2ncc(Cl)c(Nc3ccccc3P(C)(C)=O)n2)cc(Cl)c1N1CCC(N2CCN(CCC#Cc3cccc4c3CN(C3CCC(=O)NC3=O)C4=O)CC2)CC1` (stereo not drawn) [Example E77]: the IC50 came out at 67.6 nM.

In the case of `CCc1cc(Nc2ncc(Cl)c(Nc3ccccc3P(C)(C)=O)n2)c(OC(F)F)cc1N1CCC(N2CCN(CCOc3cccc4c3CN(C3CCC(=O)NC3=O)C4=O)CC2)CC1` (stereo not drawn) [Example E151], the IC50 is above 4000 nM.

`CCc1cc(Nc2ncc(Cl)c(Nc3ccccc3P(C)(C)=O)n2)c(OC)cc1N1CCC(N2CCN(CCOc3cccc4c3CN(C3CCC(=O)NC3=O)C4=O)C(C)(C)C2)CC1` (stereo not drawn) [Example E108] registered an IC50 of 1750 nM.

In turn, `COCc1cc(Nc2ncc(Cl)c(Nc3ccccc3P(C)(C)=O)n2)c(OC)cc1N1CCC(N2CCN(CCCCOc3cccc4c3CN(C3CCC(=O)NC3=O)C4=O)CC2)CC1` (stereo not drawn) [Example E125] yielded an IC50 above 4000 nM.

Compound `CCc1cc(Nc2ncc(Cl)c(Nc3ccccc3P(C)(C)=O)n2)c(OC)cc1N1CCC(N(C)CCCCOc2cccc3c2CN(C2CCC(=O)NC2=O)C3=O)CC1` (stereo not drawn) [Example E116] returned an IC50 above 4000 nM.

A further assay deals with T1, BaF3 (EGFR Del19/C797S) (Homo sapiens, UniProt P00533, C797S, cells depend on it, form not given).
T1 construct: BaF3 (EGFR Del19/C797S)|DC|RPMI1640 + 10% FBS
T1 sequence (P00533 with tags, fused parts or gaps DEL746-750/C797S, form open): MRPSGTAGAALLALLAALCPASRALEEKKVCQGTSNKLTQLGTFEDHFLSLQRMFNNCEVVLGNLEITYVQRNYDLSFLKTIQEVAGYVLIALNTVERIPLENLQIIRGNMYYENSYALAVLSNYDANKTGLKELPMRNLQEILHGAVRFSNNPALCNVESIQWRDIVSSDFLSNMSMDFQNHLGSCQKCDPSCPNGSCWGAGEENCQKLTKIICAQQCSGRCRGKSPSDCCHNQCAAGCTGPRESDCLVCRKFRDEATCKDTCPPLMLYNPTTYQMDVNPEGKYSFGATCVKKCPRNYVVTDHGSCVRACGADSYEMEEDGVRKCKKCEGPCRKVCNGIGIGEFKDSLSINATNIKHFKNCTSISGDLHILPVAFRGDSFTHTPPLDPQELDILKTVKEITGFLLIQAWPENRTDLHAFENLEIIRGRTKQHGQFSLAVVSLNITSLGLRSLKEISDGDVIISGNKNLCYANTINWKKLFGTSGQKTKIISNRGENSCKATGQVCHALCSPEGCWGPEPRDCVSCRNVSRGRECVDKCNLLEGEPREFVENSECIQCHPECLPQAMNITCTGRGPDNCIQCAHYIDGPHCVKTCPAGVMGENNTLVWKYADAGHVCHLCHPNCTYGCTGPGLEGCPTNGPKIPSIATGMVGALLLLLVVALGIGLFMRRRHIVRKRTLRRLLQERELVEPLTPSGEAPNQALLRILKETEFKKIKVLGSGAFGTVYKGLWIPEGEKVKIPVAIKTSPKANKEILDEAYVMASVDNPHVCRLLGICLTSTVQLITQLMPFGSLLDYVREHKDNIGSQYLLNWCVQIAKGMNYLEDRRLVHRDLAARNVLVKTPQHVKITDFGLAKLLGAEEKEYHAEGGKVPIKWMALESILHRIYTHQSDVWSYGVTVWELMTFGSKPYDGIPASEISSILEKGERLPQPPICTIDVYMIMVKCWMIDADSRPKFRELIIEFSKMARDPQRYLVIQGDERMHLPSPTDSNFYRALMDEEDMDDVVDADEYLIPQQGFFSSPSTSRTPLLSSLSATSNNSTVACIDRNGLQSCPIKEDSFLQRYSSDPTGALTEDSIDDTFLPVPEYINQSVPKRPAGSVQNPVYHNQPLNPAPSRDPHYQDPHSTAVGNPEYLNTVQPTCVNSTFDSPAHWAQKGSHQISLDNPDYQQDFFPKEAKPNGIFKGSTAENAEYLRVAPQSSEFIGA
In words: Cell proliferation IC50 assay (Cell Titer GLO), BaF3 DC cells. Conditions: Table 6, 72 h. The format is cell-based, mouse. In a few lines: as §1
As to `COc1cc(N2CCC(N3CCN(CCCCOc4cccc5c4CN(C4CCC(=O)NC4=O)C5=O)CC3)CC2)c(-c2cnn(C)c2)cc1Nc1ncc(Cl)c(Nc2ccccc2P(C)(C)=O)n1` (stereo not drawn) [Example E146], the IC50 was 5.6 nM.

Take `CCc1cc(Nc2ncc(Cl)c(Nc3ccccc3P(C)(C)=O)n2)cc(Cl)c1N1CCC(N2CCN(CCC#Cc3cccc4c3CN(C3CCC(=O)NC3=O)C4=O)CC2)CC1` (stereo not drawn) [Example E77]: the concentration for half-maximal inhibition (IC50) was 13.5 nM.

Turning to `CCc1cc(Nc2ncc(Cl)c(Nc3ccccc3P(C)(C)=O)n2)c(OC(F)F)cc1N1CCC(N2CCN(CCOc3cccc4c3CN(C3CCC(=O)NC3=O)C4=O)CC2)CC1` (stereo not drawn) [Example E151], the midpoint of inhibition, the IC50, lay at 6.7 nM.

With `CCc1cc(Nc2ncc(Cl)c(Nc3ccccc3P(C)(C)=O)n2)c(OC)cc1N1CCC(N2CCN(CCOc3cccc4c3CN(C3CCC(=O)NC3=O)C4=O)C(C)(C)C2)CC1` (stereo not drawn) [Example E108], half-maximal inhibition (IC50) was put at 3.2 nM.

The compound `COCc1cc(Nc2ncc(Cl)c(Nc3ccccc3P(C)(C)=O)n2)c(OC)cc1N1CCC(N2CCN(CCCCOc3cccc4c3CN(C3CCC(=O)NC3=O)C4=O)CC2)CC1` (stereo not drawn) [Example E125] yielded an IC50 of 18.4 nM.

In turn, `CCc1cc(Nc2ncc(Cl)c(Nc3ccccc3P(C)(C)=O)n2)c(OC)cc1N1CCC(N(C)CCCCOc2cccc3c2CN(C2CCC(=O)NC2=O)C3=O)CC1` (stereo not drawn) [Example E116] gave an IC50 of 4.3 nM.
